Measured values published in patent US20140309295A1, “ANTIEPILEPTIC, HYPOCHOLESTEROLEMIC AND NEUROPROTECTIVE COMPOUND” (NEURON BIOPHARMA, S.A., priority 2009, published 2014).

Legend:
[1] = system: FVB/NHan mice inoculated with kainate (KA); test: Integral memory test (temporal and spatial memory) in mice after kainate; format: in vivo
Method: (§1) All the animals included for the experimental process were 12-week old males of the FVB/NHan strain. The experiments were conducted strictly following the Guidance on the Operation of Animals (Scientific Procedures, Act. 1986). The animals had their respective quarantine period and were treated with maximum precaution to minimize possible contaminations for inoculations and handling.
Twenty-eight animals were used in this assay and the treatments were all conducted by intraperitoneal (i.p.) route with a volume of 100 μl, according to the following regimens: • i) PBS+PBS+PBS regimen: 4 animals were initially treated with PBS with a daily dose for 2 days, on the second day the animals were inoculated with a new dose of PBS and for the following 3 days with a daily dose of PBS. • ii) PBS+KA+PBS regimen: 6 animals were initially treated with PBS with a daily dose for 2 days, on the second day the animals were inoculated with a dose of kainate at 25 mg/Kg and for the following 3 days with a daily dose of PBS. • iii) PBS+KA+NST0037 regimen: 7 animals were initially treated with PBS with a daily dose for 2 days, on the second day the animals were inoculated with a dose of kainate at 25 mg/Kg and for the following 3 days with a daily dose of NST0037 at 50 mg/kg. • iv) NST0037+KA+NST0037 regimen: 6 animals were initially treated with a daily dose for 2 days with NST0037 at 50 mg/kg, on the second day the animals were inoculated with a dose of kainate at 25 mg/Kg and for the following 3 days with a daily dose of NST0037 at 50 mg/kg. • v) NST0037+PBS+NST0037 regimen: 5 animals were initially treated with a daily dose for 2 days with NST0037 at 50 mg/kg, on the second day the animals were inoculated with a dose of PBS and for the following 3 days with a daily dose of NST0037 at 50 mg/kg.
Three days after inoculation of KA, an object recognition test called integral memory test was performed on the animals.

[2] = system: FVB/NHan mice inoculated with kainate (KA); test: Neuropathological signs in hippocampus after kainate (MAP2, HNE, T.U.N.E.L., GFAP); format: in vivo; conditions: for neuritic dystrophy (MAP2 labeling) in hippocampus: 50 mg/kg i.p., 7 days
Method: as §1, with “contaminations during” for “contaminations for”
Twenty-five animals were used in this assay and the treatments were all conducted by intraperitoneal (i.p.) route with a volume of 100 μl, according to the following regimens: • i) PBS+PBS+PBS regimen: 4 animals were initially treated with PBS with a daily dose for 2 days, on the second day the animals were inoculated with a new dose of PBS and for the next 7 days with a daily dose of PBS. • ii) NST0037+KA+NST0037 regimen: 7 animals were initially treated with a daily dose for 2 days with NST0037 at 50 mg/kg, on the second day the animals were inoculated with a dose of kainate at 25 mg/Kg and for the next 7 days with a daily dose of NST0037 at 50 mg/kg. • iii) PBS+KA+PBS regimen: 7 animals were initially treated with PBS with a daily dose for 2 days, on the second day the animals were inoculated with a dose of kainate at 25 mg/Kg and for the next 7 days with a daily dose of PBS. • iv) PBS+KA+NST0037 regimen: 7 animals were initially treated with PBS with a daily dose for 2 days, on the second day the animals were inoculated with a dose of kainate at 25 mg/Kg and for the next 7 days with a daily dose of NST0037 at 50 mg/kg.
(§2) Once the treatment time of 7 days ended, the animals were sacrificed and the brains were dissected. The brain samples were processed and included in paraffin. For the analysis of neuritic dystrophy in the hippocampus, bright field immunochemistry against microtubule associated protein type 2 (MAP2) was performed in 5 μm thick coronal sections.
as §2, with “oxidative damage due to lipid peroxidation” for “neuritic dystrophy”, “4-hydroxynonenal (HNE)” for “microtubule associated protein type 2 (MAP2)”
Once the treatment time of 7 days ended, the animals were sacrificed and the brains were dissected. The brain samples were processed and included in paraffin. For the analysis of the presence of neurons in apoptosis in the hippocampus, the T.U.N.E.L. (TdT-mediated dUTP nick end labeling) fluorescence technique was performed in 5 μm thick coronal sections.
Once the treatment time of 7 days ended, the animals were sacrificed and the brains were dissected. The brain samples were processed and included in paraffin. The analysis of reactive astrogliosis was performed by means of bright field immunochemistry against Glial fibrillary acidic protein (GFAP) in 5 μm thick coronal sections, which protein is present in astrocytes.

SMILES: CCC(CC)C(=O)O[C@H]1C[C@@H](C)C=C2C=C[C@H](C)[C@H](CC[C@@H]3C[C@@H](O)CC(=O)O3)[C@H]21 [NST0037, (1S,2S,6R,8S,8aR)-1,2,6,7,8,8a-hexahydro-3,7-dimethyl-8-[2-[(2R,4R)-tetrahydro-4-hydroxy-6-oxo-2H-pyran-2-yl]ethyl]-1-naphthalenyl-2-ethyl-butyrate]
- spatial memory ([1]; NST0037+KA+NST0037 regimen, 50 mg/kg i.p.): spatial memory is intact
- temporal memory ([1]; NST0037+KA+NST0037 regimen, 50 mg/kg i.p., 3 days after KA): prevented the reduction in the temporal memory capacity
- spatial memory ([1]; NST0037+PBS+NST0037 regimen): spatial memory is intact
- temporal memory ([1]; NST0037+PBS+NST0037 regimen, vs PBS+PBS+PBS): improvement of the temporal memory
- spatial memory ([1]; PBS+KA+NST0037 regimen, 50 mg/kg i.p.): improvement of this type of memory
- temporal memory ([1]; PBS+KA+NST0037 regimen, 50 mg/kg i.p., 3 days after KA): improvement of the state of the temporal memory
- apoptosis (T.U.N.E.L.) in hippocampus ([2]; NST0037+KA+NST0037 regimen): did not show neurons positive for T.U.N.E.L.
- oxidative damage (HNE labeling) in hippocampus ([2]; NST0037+KA+NST0037 regimen): without HNE-labeled neurons
- reactive astrogliosis (GFAP) in hippocampus ([2]; NST0037+KA+NST0037 regimen): astrocyte pattern very similar to that of the controls
- neuritic dystrophy (MAP2 labeling) in hippocampus ([2]; NST0037+KA+NST0037 regimen): without evidence of neuritic dystrophy
- apoptosis (T.U.N.E.L.) in hippocampus ([2]; PBS+KA+NST0037 regimen): reduces the number of neurons in apoptosis to a few isolated cells
- oxidative damage (HNE labeling) in hippocampus ([2]; PBS+KA+NST0037 regimen): reduces the number of HNE-labeled neurons
- reactive astrogliosis (GFAP) in hippocampus ([2]; PBS+KA+NST0037 regimen): reduces the number of astrocytes and the intensity of the GFAP labeling
- neuritic dystrophy (MAP2 labeling) in hippocampus ([2]; PBS+KA+NST0037 regimen): clearly reduces the loss of MAP2 labeling
